In ChEMBL document CHEMBL1201862, “PubChem BioAssay data set” (2004):
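In this assay, cells in 96-well plates receive the compound at five concentrations for 48 hours. Endpoints are linearly interpolated between the surrounding concentrations. GI50 = concentration required for 50% inhibition of growth.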 Active and inactive are the calls of the source. Cut-off read from the data, not from the text of the source: active = GI50 up to about 1.1 µM and inactive = higher.

How the values were obtained:
Assay in all cases: NCI-60 cell line screen, 48 h
[1] = test system: ACHN
[2] = test system: CCRF-CEM
[3] = test system: COLO 205
[4] = test system: DMS-114
[5] = test system: K562
[6] = test system: LOX IMVI
[7] = test system: NCI-H522
[8] = test system: OVCAR-3
[9] = test system: SF-295
[10] = test system: SK-OV-3
[11] = test system: SN12C
[12] = test system: SW-620
[13] = test system: UO-31
[14] = test system: OVCAR-5
[15] = test system: SF-268
[16] = test system: CAKI-1
[17] = test system: DU-145
[18] = test system: MDA-MB-231
[19] = test system: MDA-MB-435
[20] = test system: NCI/ADR-RES

Measured: GI50

O=C(O)c1ccccc1/N=N/c1ccc2oc(=O)c(C(=O)Nc3ccccc3)cc2c1
inactive: [1] 50.2 µM | [2] 28.6 µM | [3] 30.3 µM | [4] 25.1 µM | [5] 39.6 µM | [6] 35.9 µM | [7] 34.8 µM | [8] 20.4 µM | [9] 50.2 µM | [10] 52.8 µM | [11] 45.1 µM | [12] 49.7 µM | [13] 37.1 µM

COC(=O)C(/C(=N/N)C(=O)Nc1cc(Cl)ccc1Cl)c1nc2ccc([N+](=O)[O-])cc2nc1O (stereo not given)
inactive: [1] 39.1 µM | [2] 25 µM | [3] > 100 µM | [4] 50.2 µM | [5] 2.74 µM | [6] > 100 µM | [7] 21.3 µM | [8] > 100 µM | [14] > 100 µM | [15] 92.3 µM | [9] > 100 µM | [10] > 100 µM | [11] > 100 µM | [12] > 100 µM | [13] 40 µM

COC1(OC)C(N(C)C)=C(Cl)C(=O)/C1=C/C=O
inactive: [1] 92 µM | [16] > 100 µM | [2] 20.9 µM | [3] > 100 µM | [4] > 100 µM | [5] 33.1 µM | [6] 84.7 µM | [8] 60.1 µM | [14] > 100 µM | [15] > 100 µM | [9] > 100 µM | [10] > 100 µM | [11] > 100 µM | [12] 97.1 µM | [13] > 100 µM

CC(C)C1CCC/C=C/C=C/C=C/C=C/C(OC2OC(C)C(O)C(N)C2O)CC2OC(O)(CC(O)CC(O)C(O)CCC(=O)O1)CC(O)C2C(=O)O (stereo not given)
inactive: [1] > 52.5 µM | [16] > 52.5 µM | [2] > 52.5 µM | [3] > 52.5 µM | [4] > 52.5 µM | [5] > 52.5 µM | [7] > 52.5 µM | [8] > 52.5 µM | [15] > 52.5 µM | [9] > 52.5 µM | [10] > 52.5 µM | [11] > 52.5 µM | [12] > 52.5 µM | [13] > 52.5 µM

Cc1ccccc1-c1c(N)nc(NC#N)nc1C(=O)Nc1ccccc1
inactive: [1] > 100 µM | [16] > 100 µM | [2] > 100 µM | [3] > 100 µM | [4] > 100 µM | [5] > 100 µM | [6] > 100 µM | [8] > 100 µM | [14] > 100 µM | [15] > 100 µM | [9] > 100 µM | [10] > 100 µM | [11] 99.8 µM | [12] > 100 µM | [13] > 100 µM

CC(=O)C1C(=O)N(C(C)C)C[C@@H]2CCC(=O)C[C@H]12 (stereo not given in full)
inactive: [16] > 100 µM | [2] > 100 µM | [3] > 100 µM | [4] > 100 µM | [5] > 100 µM | [6] > 100 µM | [7] > 100 µM | [8] > 100 µM | [15] > 100 µM | [9] > 100 µM | [10] > 100 µM | [11] > 100 µM | [12] > 100 µM | [13] > 100 µM

CCCn1cnc2c(SCC(=O)O)nc(N)nc21
inactive: [1] > 100 µM | [16] > 100 µM | [2] > 100 µM | [3] > 100 µM | [17] > 100 µM | [5] > 100 µM | [6] > 100 µM | [18] > 100 µM | [19] > 100 µM | [7] > 100 µM | [20] > 100 µM | [8] > 100 µM | [14] > 100 µM | [15] > 100 µM | [9] > 100 µM | [10] > 100 µM | [11] > 100 µM | [12] > 100 µM | [13] > 100 µM

Cc1c(/N=N/c2ccc(Cl)cc2)c(C)n(C2OC(CO)C(O)C(O)C2O)c(=S)c1C#N (stereo not given)
inactive: [1] 19.6 µM | [16] 64.1 µM | [2] 18.5 µM | [3] 19.3 µM | [17] 20.5 µM | [5] 16.7 µM | [6] 17.3 µM | [18] 18.4 µM | [19] 20.2 µM | [7] 20 µM | [20] 19 µM | [8] 12.8 µM | [14] 30.5 µM | [15] 16 µM | [9] 31.8 µM | [10] 37.4 µM | [11] 15.5 µM | [12] > 100 µM | [13] 23.4 µM

O=C(O)c1cc(/N=N/c2ccc([N+](=O)[O-])cc2)ccc1O
inactive: [1] 37.3 µM | [16] 29.2 µM | [2] 28.4 µM | [3] 30.8 µM | [17] 38.3 µM | [5] 29.6 µM | [6] 39.7 µM | [18] 26.9 µM | [19] 34.9 µM | [7] 28 µM | [20] 30.8 µM | [8] 15.6 µM | [14] 30.3 µM | [15] 35.6 µM | [9] 32.3 µM | [10] 81.7 µM | [11] 30.8 µM | [12] 36 µM | [13] 16.6 µM

COc1nc(N=P(c2ccccc2)(c2ccccc2)c2ccccc2)cc(=O)[nH]1
inactive: [1] > 100 µM | [16] > 100 µM | [2] > 100 µM | [3] > 100 µM | [17] > 100 µM | [5] > 100 µM | [6] > 100 µM | [18] > 100 µM | [19] > 100 µM | [7] > 100 µM | [20] > 100 µM | [8] > 100 µM | [14] > 100 µM | [15] > 100 µM | [9] > 100 µM | [10] > 100 µM | [11] > 100 µM | [12] > 100 µM | [13] > 100 µM

CCOc1cc(NC(C)=O)ccc1C(=O)NN1C(=O)C(Cl)C1c1ccc(O)c(OC)c1 (stereo not given)
inactive: [1] 16.6 µM | [16] 16.5 µM | [2] 4.67 µM | [3] 15.6 µM | [17] 15.6 µM | [5] 5.11 µM | [6] 2.17 µM | [18] 13.3 µM | [19] 12.6 µM | [7] 6.35 µM | [20] 20.4 µM | [8] 20.2 µM | [14] 19.1 µM | [15] 14.7 µM | [9] 21.3 µM | [10] 17.3 µM | [11] 13.3 µM | [12] 21.4 µM | [13] 2.43 µM

Cc1ccc(/C=N/Nc2nc3ccccc3s2)s1
inactive: [1] > 100 µM | [16] 79.3 µM | [2] > 100 µM | [3] > 100 µM | [17] > 100 µM | [5] 31.5 µM | [6] > 100 µM | [18] 24.7 µM | [19] > 100 µM | [7] > 100 µM | [20] > 100 µM | [8] 34.9 µM | [14] > 100 µM | [15] 49.8 µM | [9] 40.9 µM | [10] 58.7 µM | [11] 12.6 µM | [12] > 100 µM | [13] 51.6 µM
